Converted amounts (≈) assume the structure as drawn.
System: M. tuberculosis
Format: cell-based, Mycobacterium tuberculosis
Settings: pH 6.8

| Compound | MIC in the media 7H9 [µg/mL] | MIC in the media L-Ala [µg/mL] | MIC in the media SBA [µg/mL] | MIC in the media SLac [µg/mL] |
| --- | --- | --- | --- | --- |
| Nc1cc(Nc2ccc(Br)cc2)nc(N)n1 [compound 42135] | ≥ 28.01 | 7.00 (≈ 25 µM) | 14.01 (≈ 50 µM) | 3.50 (≈ 12.5 µM) |
| CN(CC(=O)O)Cc1c(O)c(Cl)cc(Cl)c1Cl [compound 45114] | ≥ 119.40 | 29.85 (≈ 100 µM) | 14.93 (≈ 50 µM) | 3.73 (≈ 12.5 µM) |
| Cc1ccc(NC(c2ccccc2)c2ccc3cccnc3c2O)cc1 (stereo not drawn) [compound 84093] | ≥ 136.16 | 17.02 (≈ 50 µM) | 2.13 (≈ 6.26 µM) | 2.13 (≈ 6.26 µM) |
| Oc1c(Cl)cc(Cl)c2cccnc12 [compound 3904] | ≥ 4 | 0.03 (≈ 0.14 µM) | 0.03 (≈ 0.14 µM) | 0.03 (≈ 0.14 µM) |
| CCOC(=O)c1ccc(N)cc1 [compound 41531] | ≥ 800 | 0.26 (≈ 1.57 µM) | 0.26 (≈ 1.57 µM) | 0.26 (≈ 1.57 µM) |
| CCOC(CNCc1cc(C)c2[nH]c3ccccc3c2c1C)OCC [compound 79486] | ≥ 17.03 | 8.51 (≈ 25 µM) | 8.51 (≈ 25 µM) | 2.13 (≈ 6.26 µM) |
| Cc1ccc2ccc(C#N)cc2c1O [compound 128068] | ≥ 18.32 | 9.16 (≈ 50 µM) | 9.16 (≈ 50 µM) | 2.29 (≈ 12.5 µM) |
| COC(C(=O)C(O)C(C)O)C1Cc2cc3cc(OC4CC(OC(C)=O)C(OC5CC(O)C(OC)C(C)O5)C(C)O4)cc(O)c3c(O)c2C(=O)C1OC1CC(OC2CC(OC3CC(C)(O)C(OC(=O)C(C)C)C(C)O3)C(O)C(C)O2)C(O)C(C)O1 (stereo not drawn) [compound 38270] | ≥ 59.87 | 7.48 (≈ 6.25 µM) | 3.83 (≈ 3.2 µM) | 3.83 (≈ 3.2 µM) |
| CSc1nc(=O)[nH]nc1Sc1ccccc1 [compound 134058] | ≥ 25.13 | 6.28 (≈ 25 µM) | 3.14 (≈ 12.5 µM) | 3.14 (≈ 12.5 µM) |
| NN=C1C(Cl)=C(Cl)C(Cl)=C1Cl [compound 126405] | ≥ 23.19 | 5.80 (≈ 25 µM) | 5.80 (≈ 25 µM) | 5.80 (≈ 25 µM) |
| NC(=O)c1ccc([N+](=O)[O-])cc1 [compound 2902] | ≥ 66.44 | 16.61 (≈ 100 µM) | 33.22 (≈ 200 µM) | 8.31 (≈ 50 µM) |
| O=C(Nc1ccccc1)c1cc(Cl)ccc1O [compound 402600] | ≥ 24.77 | 1.55 (≈ 6.26 µM) | 1.55 (≈ 6.26 µM) | 0.79 (≈ 3.19 µM) |
| O=C(O)c1cc2ccccc2cc1Nc1ccccc1 [compound 40275] | ≥ 26.33 | 3.29 (≈ 12.5 µM) | 3.29 (≈ 12.5 µM) | 0.84 (≈ 3.19 µM) |
| NC(=O)c1ccc(N)cc1 [compound 36963] | ≥ 54.48 | 6.81 (≈ 50 µM) | 13.62 (≈ 100 µM) | 3.41 (≈ 25 µM) |
| Cl.O=C(c1ccc(OCCN2CCCCC2)cc1)c1c(-c2ccc(O)cc2)sc2cc(O)ccc12 [compound 747974] | ≥ 47.36 | 2.96 | 2.96 | 2.96 |
| O=C1c2cccc3cc([N+](=O)[O-])cc(c23)C(=O)N1CCN1CCCC1 [compound 300289] | ≥ 8.48 | 4.24 (≈ 12.5 µM) | 2.12 (≈ 6.25 µM) | 2.12 (≈ 6.25 µM) |
| O=[N+]([O-])c1cc([N+](=O)[O-])c2cccnc2c1O [compound 57103] | ≥ 23.52 | 0.75 (≈ 3.19 µM) | 0.75 (≈ 3.19 µM) | 0.75 (≈ 3.19 µM) |
| CCOC(=O)c1ccc([N+](=O)[O-])cc1 [compound 6763] | ≥ 78.08 | 9.76 (≈ 50 µM) | 4.88 (≈ 25 µM) | 4.88 (≈ 25 µM) |
| C=CC(=O)Nc1cc(Nc2nccc(-c3cn(C)c4ccccc34)n2)c(OC)cc1N(C)CCN(C)C [compound 779217] | ≥ 12.49 | 3.12 (≈ 6.24 µM) | 3.12 (≈ 6.24 µM) | 1.60 (≈ 3.2 µM) |
| Cc1ccc([S+]([O-])c2ccc([N+](=O)[O-])c3nonc23)cc1 (stereo not drawn) [compound 228150] | ≥ 30.33 | 7.58 (≈ 25 µM) | 3.79 (≈ 12.5 µM) | 3.79 (≈ 12.5 µM) |
| Cc1nc(C(=O)N=C(N)N)c(N)nc1-c1ccccc1 [compound 614911] | ≥ 108.12 | 13.52 (≈ 50 µM) | 27.03 (≈ 100 µM) | 27.03 (≈ 100 µM) |

Source: patent publication US20240148723A1, “MYCOBACTERIUM TUBERCULOSIS COMPOSITIONS AND METHODS” (priority 2021, published 2024)
